Legend:
[1] = target: KRAS (G12D)::SOS1 protein-protein interaction (Homo sapiens (Human), UniProt P01116, G12D); experiment: KRAS::SOS1 AlphaScreen binding assay (KRAS G12D); details: GDP
Excerpt: This assay can be used to examine the potency with which compounds according to the invention binding to (mutated) KRAS inhibit the protein-protein interaction between SOS1 and (mutated) KRAS e.g. KRAS G12C, KRAS G12D. […] Low IC50 values in this assay setting are indicative of strong inhibition of protein-protein interaction between SOS1 and KRAS:
These assays measure the inhibitory effect of compounds on KRAS mutant protein-protein interactions using the Alpha Screen technology by Perkin Elmer.
The following (mutant) enzyme forms of KRAS and interacting proteins are used in these assays at the given concentrations:
KRAS (G12D) 1-169, N-terminal 6His-tag, C-terminal avi-tag (Xtal BioStructures, Inc.); final assay concentration 10 nM and SOS1 564-1049, N-terminal 229 GST-tag, TEV cleavage site (Viva Biotech Ltd); final assay concentration 5 nM;
Test compounds dissolved in DMSO are dispensed onto assay plates (Proxiplate 384 PLUS, white, PerkinElmer; 6008289) using an Access Labcyte Workstation with the Labcyte Echo 55x. For the chosen highest assay concentration of 100 μM, 150 nL of compound solution are transferred from a 10 mM DMSO compound stock solution. A series of eleven fivefold dilutions per compound are transferred to the assay plate, compound dilutions are tested in duplicates. DMSO are added as backfill to a total volume of 150 nL.
The assays run on a fully automated robotic system in a darkened room below 100 Lux. To 150 nl of compound dilution 10 μl of a mix including KRAS mutant protein, SOS1 (final assay concentrations see above) and GDP nucleotide (Sigma G7127; final assay concentration 10 μM) in assay buffer (1×PBS, 0.1% BSA, 0.05% Tween 20) are added into columns 1-24.
After 30 minutes incubation time 5 μl of Alpha Screen bead mix in assay buffer are added into columns 1-23. Bead mix consists of AlphaLISA Glutathione Acceptor Beads (PerkinElmer, Cat No AL109) and AlphaScreen Streptavidin Donor Beads (PerkinElmer Cat No 6760002) in assay buffer at a final assay concentration of 10 μg/mL each.
Plates are kept at room temperature in a darkened incubator. After an additional 60 minutes incubation time the signal is measured in a PerkinElmer Envision HTS Multilabel Reader using the AlphaScreen specs from PerkinElmer.
Each plate contains up to 16 wells of a negative control depending on the dilution procedure (platewise or serial) (DMSO instead of test compound; with KRAS mutant::SOS1 GOP mix and bead mix; column 23) and 16 wells of a positive control (DMSO instead of test compound; with KRAS mutant::SOS1 GOP mix w/o bead mix; column 24).
As internal control known inhibitors of KRAS mutant::SOS1 interaction can be measured on each compound plate.
IC50 values are calculated and analyzed with Boehringer Ingelheim's MEGALAB C50 application using a 4 parametric logistic model.
Tables of example compounds disclosed herein contain IC50 values determined using the above assays (see Table 43).

Ba/F3 cells KRAS G12C = experiment: Ba/F3 proliferation assay (KRAS G12C); assay type: cell-based; details: Mus musculus, BaF3, 72 h, AlamarBlue viability
Method: Ba/F3 cells are ordered from DSMZ (ACC300, Lot17) and grown in RPMI-1640 (ATCC 30-2001)+10% FCS+10 ng/mL IL-3 at 37° C. in 5% […] atmosphere. Plasmids containing KRASG12 mutants (i.e. […], G12C, G12V) are obtained from GeneScript. To generate KRASG12-dependent Ba/F3 models, Ba/F3 cells are transduced with retroviruses containing vectors that harbor KRASG12 isoforms. Platinum-E cells (Cell Biolabs) are used for retrovirus packaging. Retrovirus is added to Ba/F3 cells. To ensure infection, 4 μg/mL polybrene is added and cells are spinfected. Infection efficiency is confirmed by measuring GFP-positive cells using a cell analyzer. Cells with an infection efficiency of 10% to 20% are further cultivated and puromycin selection with 1 μg/mL is initiated. As a control, parental Ba/F3 cells are used to show selection status. Selection is considered successful when parental Ba/F3 cells cultures died. To evaluate the transforming potential of KRASG12 mutations, the growth medium is no longer supplemented with IL-3. Ba/F3 cells harboring the empty vector are used as a control. Approximately ten days before conducting the experiments, puromycin is left out.
For proliferation assays, Ba/F3 cells are seeded into 384-well plates at 1.5×1 (M cells/60 μL in growth media (RPMI-1640+10% FCS). Compounds (10 mM stock in DMSO) are added at logarithmic dose series using the ECHO acoustic liquid handler system (Beckman Coulter), normalizing for added DMSO and including DMSO controls. All compound treatments are performed in technical duplicates. For the TO time point measurement, untreated cells are analyzed at the time of compound addition. Treated cells are incubated for 72 h at 37° C. with 5% CO2 and cell viability is measured in the PerkinElmer Envision Multimode Reader using AlamarBlue™ (ThermoFisher) viability stain. Viability (stated as percent of control) is defined as relative fluorescence units RFU of each well divided by the RFU of cells in DMSO controls. IC50 values are determined from viability measurements by non-linear regression using a four-parameter model.

NCI-H358 cells = experiment: NCI-H358 CTG proliferation assay (120 h) (NSCLC, G12C); assay type: cell-based; details: Homo sapiens
Method: NCI-H358 cells (ATCC No. CRL-5807) are dispensed into black 384-well plates, flat and clear bottom (Greiner, PNr. 781091) at a density of 200 cells per well in 60 μl RPMI-1640 ATCC-Formulation (Gibco #A10491)+10% FCS (fetal calf serum). Cells are incubated overnight at 37° C. in a humidified tissue culture incubator at 5% CO2. Compounds (10 mM stock in DMSO) are added at logarithmic dose series using the ECHO acoustic liquid handler system (Beckman Coulter), normalizing for added DMSO and including DMSO controls. All compound treatments are performed in technical duplicates. For the TO time point measurement, untreated cells are analyzed at the time of compound addition. Plates are incubated for 120 h, and cell viability is measured using CellTiter-Glo luminescent cell viability reagent (Promega product code G7570). Viability (stated as percent of control) is defined as relative luminescence units RLU of each well divided by the RLU of cells in DMSO controls. IC50 values are determined from viability measurements by non-linear regression using a four-parameter model.
IC50 values of representative compounds according to the invention measured with these assays in the indicated cell lines are presented in Table 46.

Chain of KRAS (G12D)::SOS1 protein-protein interaction (P01116 other isoform, or with tags, fused parts or gaps G12D): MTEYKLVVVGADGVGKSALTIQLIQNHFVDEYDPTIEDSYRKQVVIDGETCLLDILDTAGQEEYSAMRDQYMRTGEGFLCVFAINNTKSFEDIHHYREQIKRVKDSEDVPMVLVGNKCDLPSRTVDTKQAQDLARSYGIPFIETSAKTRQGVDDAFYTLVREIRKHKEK

| Structure (SMILES) | IC50 [1] [nM] | IC50 (Ba/F3 cells KRAS G12C) [nM] | IC50 (NCI-H358 cells) [nM] |
| --- | --- | --- | --- |
| COCCn1c(=O)n([C@@H]2CCOC2)c2nc(-c3onc4c3CCC[C@@]43CCCc4sc(N)c(C#N)c43)nc(O[C@@H](C)[C@@H]3CCCN3C)c21 [I-1] | 1 | 15 | 9 |
| CO[C@H]1C[C@@H]([C@H](C)Oc2nc(-c3onc4c3CCC[C@@]43CCCc4sc(N)c(C#N)c43)nc3c2n(C)c(=O)n3[C@@H]2CCOC2)N(C)C1 [I-2] | 2 | 41 | 43 |
| CO[C@@H]1C[C@@H]([C@H](C)Oc2nc(-c3onc4c3CCC[C@@]43CCCc4sc(N)c(C#N)c43)nc3c2n(C)c(=O)n3[C@@H]2CCOC2)N(C)C1 [I-3] | 1 | 6 | 4 |
| C[C@H](Oc1nc(-c2onc3c2CCC[C@@]32CCCc3sc(N)c(C#N)c32)nc2c1n(C)c(=O)n2[C@@H]1CCOC1)[C@@H]1[C@H](F)CCN1C [I-4] | 4 | 58 | 107 |
| C[C@H](Oc1nc(-c2onc3c2CCC[C@@]32CCCc3sc(N)c(C#N)c32)nc2c1n(C)c(=O)n2[C@@H]1CCOC1)[C@@H]1[C@@H](F)CCN1C [I-5] | 2 | 31 | 54 |
| CO[C@H]1CCN(C)[C@@H]1[C@H](C)Oc1nc(-c2onc3c2CCC[C@@]32CCCc3sc(N)c(C#N)c32)nc2c1n(C)c(=O)n2[C@@H]1CCCOC1 [I-6] | 2 | 4 | 4 |
| COCCn1c(=O)n(C)c2c(O[C@@H](C)[C@@H]3CCCN3C)nc(-c3onc4c3CCC[C@@]43CCCc4sc(N)c(C#N)c43)nc21 [I-7] | 5 | 99 | 124 |
| C[C@H](Oc1nc(-c2onc3c2CCC[C@@]32CCCc3sc(N)c(C#N)c32)nc2c1[nH]c(=O)n2[C@@H]1CCOC1)[C@@H]1CCCN1C [I-8] | 1 | 41 | 9 |
| C[C@H](Oc1nc(-c2onc3c2CCC[C@@]32CCCc3sc(N)c(C#N)c32)nc2c1n(C)c(=O)n2[C@H]1CCOC1)[C@@H]1CCCN1C [I-9] | 2 | 38 | 52 |
| C[C@H](Oc1nc(-c2onc3c2CCC[C@@]32CCCc3sc(N)c(C#N)c32)nc2c1n(C)c(=O)n2C1CCOCC1)[C@@H]1CCCN1C [I-10] | 5 | 43 | 42 |
| C[C@H](Oc1nc(-c2onc3c2CCC[C@@]32CCCc3sc(N)c(C#N)c32)nc2c1n(C)c(=O)n2[C@H]1CCCOC1)[C@@H]1CCCN1C [I-11] | 6 | 310 | 387 |
| C[C@H](Oc1nc(-c2onc3c2CCC[C@@]32CCCc3sc(N)c(C#N)c32)nc2c1n(C)c(=O)n2[C@@H]1CCCOC1)[C@@H]1CCCN1C [I-12] | 1 | 4 | 6 |
| C[C@H](Oc1nc(-c2onc3c2CCC[C@@]32CCCc3sc(N)c(C#N)c32)nc2c1[nH]c(=O)n2[C@@H]1CCCOC1)[C@@H]1CCCN1C [I-13] | 2 | 38 | 9 |
| CO[C@@H]1C[C@@H]([C@H](C)Oc2nc(-c3onc4c3CCC[C@@]43CCCc4sc(N)c(C#N)c43)nc3c2n(C)c(=O)n3[C@@H]2CCCOC2)N(C)C1 [I-14] | 1 | 5 | 9 |
| C[C@H](Oc1nc(-c2onc3c2CCC[C@@]32CCCc3sc(N)c(C#N)c32)nc2c1n(C)c(=O)n2C12COC(C1)C2)[C@@H]1CCCN1C [I-15] | 2 | 16 | 11 |
| CO[C@H]1C[C@H](n2c(=O)n(C)c3c(O[C@@H](C)[C@@H]4CCCN4C)nc(-c4onc5c4CCC[C@@]54CCCc5sc(N)c(C#N)c54)nc32)C1 [I-16] | 12 | 288 | 141 |
| C[C@H](Oc1nc(-c2onc3c2CCC[C@@]32CCCc3sc(N)c(C#N)c32)nc2c1n(C)c(=O)n2[C@H]1CC2CCC1O2)[C@@H]1CCCN1C (some centres unmarked) [I-17] | 2 | 37 | 20 |
| C[C@H](Oc1nc(-c2onc3c2CCC[C@@]32CCCc3sc(N)c(C#N)c32)nc2c1n(C)c(=O)n2[C@@H]1CC2CCC1O2)[C@@H]1CCCN1C (some centres unmarked) [I-18] | 8 | 109 | 239 |
| C[C@H](Oc1nc(-c2onc3c2CCC[C@@]32CCCc3sc(N)c(C#N)c32)nc2c1n(C)c(=O)n2[C@H]1CO[C@@H](C)C1)[C@@H]1CCCN1C [I-47] | 1 | 1 | – |
| C[C@H](Oc1nc(-c2onc3c2CCC[C@@]32CCCc3sc(N)c(C#N)c32)nc2c1n(C)c(=O)n2[C@H]1CO[C@@H](C)C1)[C@@H]1CC[C@H](C)N1C [I-50] | 4 | 3 | – |
| CO[C@H]1CCN(C)[C@@H]1[C@H](C)Oc1nc(-c2onc3c2CCC[C@@]32CCCc3sc(N)c(C#N)c32)nc2c1n(C)c(=O)n2[C@H]1COC[C@@H](C)C1 [I-51] | 2 | 5 | – |
| CO[C@@H]1C[C@@H]([C@H](C)Oc2nc(-c3onc4c3CCC[C@@]43CCCc4sc(N)c(C#N)c43)nc3c2n(C)c(=O)n3[C@H]2COC[C@@H](C)C2)N(C)C1 [I-52] | 1 | 8 | – |

Source: US20250019385A1, “SPIROCYCLIC ANNULATED 2-AMINO-3-CYANO THIOPHENES AND DERIVATIVES FOR THE TREATMENT OF CANCER” (Boehringer Ingelheim International GmbH, priority 2023, published 2025)
